Results as given in a melting point compilation (Tetko et al.; mined from patent text by program, amines drawn as free bases though some values may be those of a salt).

SMILES	melting point
CCCc1c(OCCCOc2cccc(C(=O)O)c2)ccc(C(C)=O)c1O	142 to 143 °C
NC(=O)c1c(Cl)c(-c2ccccc2)n2c1CN(C(=O)c1cccs1)CC2	236 to 238 °C
O=c1cc(S)sc2ccoc12	> 245 °C
Cc1ccccc1Cc1c(C)c(NC(=O)CC(C)(C)C)c(C)c2c1OC(C)(C)C2	175 to 176 °C
Nc1sc2c(c1C(=O)c1ccc(I)c3ccccc13)CCC2	253 to 255 °C
COc1ccc2c(c1)c(SC(C)C)c(C(N)=O)n2C	122 to 124 °C
O=C(NCCc1cccs1)c1cc(Cl)cc(Cl)c1	100 to 102 °C
CC12CCC3c4cc(C=O)c(OCc5ccccc5)cc4CCC3C1CCC2OCc1ccccc1 (stereo not given)	145 to 147 °C
CCCN1CCc2[nH]c3ccc4scc(C)c4c3c2C1	169 °C
CCCCCCC(=O)c1ccc2c(c1)CC(=O)O2	64 to 67 °C
CC(C)Nc1cccnc1N1CCN(C(=O)c2ccc(C(=O)NCCc3cccs3)cn2)CC1	131 to 134 °C
CCOC(=O)C1=C(C)NC(CO)=C(C(=O)OCC)C1c1ccccc1/C=C/C(=O)OC(C)(C)C (stereo not given)	163 to 164 °C
Cc1cccc2nc(NC(=O)c3ccc(C(C)(C)CCC(=O)O)cc3)cn12	260 °C
Nc1cc(C(=O)O)ccc1C(F)(F)F	175 to 177 °C
CCCCN(CCCC)c1ccc(C=Cc2ccc(C(C#N)=C(C#N)C#N)s2)c(OCc2ccccc2)c1	125 to 130 °C
CC(=O)N(C)C(=N[N+](=O)[O-])N(Cc1cnc(Cl)s1)C(C)=O	72 to 74 °C
CCC(C)c1cc(Cl)cc(Cl)c1OCC(=O)NCCCCNC(=O)OC(C)(C)C (stereo not given)	50 °C
COC(=O)C1CCCN1S(N)(=O)=O (stereo not given)	166 to 168 °C
Oc1nc2ccnn2c2ncccc12	> 300 °C
O=C1C=C(Nc2ccccc2F)CCC1	116 to 118 °C
COc1ccc2c(c1)OC(=O)C(C)(C#Cc1ccccc1)C2 (stereo not given)	136 to 138 °C
CC1(C2=C(O)C(=O)c3ccccc3C2=O)CCCC1	116 to 118 °C
Cc1cc(-c2c(C)ccc(C(=S)OC(C)(C)C)c2C)on1	102 to 103 °C

SMILES	melting point
COC(=O)C1CCNC(=O)C1=O (stereo not given)	151 to 153 °C
N#Cc1cc(C=O)ccc1-n1cnc([N+](=O)[O-])n1	170 to 172 °C
CCOC(=O)c1nnc2ccc(NCCCN3CCC(OC(c4ccccc4)c4ccccc4)CC3)nn12	129 to 133 °C
O=C(NC(=O)C(c1ccccc1)c1ccccc1)OC1CCCC1	120 to 123 °C
CC(C)(C)c1cc(CCc2ccccc2NC(=O)NCCCCc2ccccc2)cc(C(C)(C)C)c1O	157 °C
CCOC(=O)C(Cc1ccc(OCc2ccccc2)cc1)Oc1ccc(OC(F)(F)F)cc1 (stereo not given)	34 to 36 °C
COc1cc(CNC(=O)c2ccc3n2Cc2ccccc2N(C(=O)c2ccc(-c4ccccc4C)c(C)c2)C3)cc(OC)c1	183 to 184 °C
Cn1cc(CC(NC(=O)CCS)C(=O)O)c2ccccc21 (racemic)	115 to 117 °C
CCc1ccc(CC(C)(C)NCC(O)c2cc(OCc3ccccc3)cc3c2OCC(=O)N3)cc1 (stereo not given)	210 to 214 °C
COc1cc(NC(=S)Nc2ccccc2)ccn1	138 to 141 °C
C=C(C)C#Cc1cccc2c1C(=O)OC(C)(C)O2	60 °C
CC(C)OC(=O)Nc1ccc(Cl)c(-c2ccnc3c(C(=O)c4cccs4)cnn23)c1	234 to 236 °C
Cc1cccc(Nc2cc(Cl)nc(SCC(=O)NC(C)CO)n2)c1C (stereo not given)	170 to 172 °C
O=C1O[C@@H](CO)CN1c1ccc(N2C[C@@H]3C[C@H]2CS3)c(F)c1	156 to 157 °C
CC(=Cc1cn(-c2cccnc2)c2ccccc12)C(=O)O	213 to 215 °C
CCC(Oc1ccc(Cl)c(C)c1)C(=O)NCc1ccco1 (stereo not given)	100 to 102 °C
CN1C(=O)C2(COc3cc4c(cc32)OCCO4)c2c(NC(=O)C(C)(C)C)cccc21 (stereo not given)	182 to 184 °C
CCCCC(=O)Nc1ccn(C2OC(CO)C(O)C2O)c(=O)n1 (stereo not given)	132 to 135 °C
Cn1c2ccccc2c(=O)n2nc(C#N)cc12	307 to 310 °C
c1ccc(-n2nnnc2OCC2CO2)cc1 (stereo not given)	77 to 81 °C
CS(=O)(=O)c1ccc(C=Cc2ccc(OCCO)cc2)cc1	224 to 226 °C
O=C(O)C1CSC(C2CCCCC2)N1 (mixture of isomers)	248 °C

Other lines, results leading:

melting point	SMILES
229 to 231 °C	COc1ccccc1-c1ccc2cnc(NC(=O)Nc3ccc(N4CCN(C)CC4)cc3)nn12
99 to 102 °C	CN(C)Cc1ccc2oc(-c3ccc(O)cc3)cc(=O)c2c1
115 to 117 °C	CN(C)CCc1[nH]c2ccccc2c1CSc1ccc(Cl)cc1
131 to 144 °C	Cc1cc(F)ccc1-c1nc(NCCNC(=O)Nc2cccc(F)c2)nc2c1ccc(=O)n2-c1c(F)cccc1F
102 to 108 °C	CCCCc1ccc(-c2ccc3c(c2)CC[C@H]2N(C)C(=O)CC[C@]32C)cc1
> 270 °C	COC(=O)c1ccc(-c2nnc(-c3cccc(NC(=O)Nc4ccc(C(C)C)cc4)c3)o2)cc1
215 to 216 °C	CCC(=O)Nc1cc(-c2ccnc(Nc3cccc(Cl)c3)n2)ccn1
168 °C	Cc1nc(N2CCOCC2)nc(C)c1-c1cccc2c1OC[C@H]2Nc1ccc2c(c1)OC[C@H]2CC(=O)O
137 to 138 °C	CCCCOc1cc(C(N)=O)nn1Cc1ccc(Cl)cc1
112 to 115 °C	O=C(Nc1nccs1)C(CC1CCCC1)c1ccc(-c2ccc3[nH]ccc3c2)cc1 (stereo not given)
126 to 128 °C	CS(=O)(=O)c1ccc(-c2c(-c3ccccc3)noc2C(F)F)cc1
226 to 227 °C	Cc1noc(NC(=O)N2CCN(c3nccc(-c4ccc(F)cc4)n3)CC2)c1C
106 °C	CCCN(CCCc1c[nH]c2ccc(F)cc12)C1COc2ccc3ncccc3c2C1 (single isomer, unassigned; (+))
58 to 59 °C	COC(=O)C(C)Oc1ccc(Oc2ncc(Cl)cc2F)cc1 (stereo not given)
185 °C	CCOC(=O)c1cn(NCC=O)c2c(F)c(F)c(F)cc2c1=O
186 to 188 °C	Cc1ccc(-c2ccc(Cl)cc2)cc1C1C(=O)COC(C)(C)C1=O (stereo not given)
143 to 144 °C	COc1ccc(CN2C(=O)NC(=O)C2O)cc1OC (stereo not given)
273 °C	Nc1nc2ccc(S(=O)(=O)n3c(CCCC(=O)O)cc4nc(Cl)ccc43)cc2o1
137 °C	Nc1cc(-c2nc3ccccn3c2Br)c(F)cc1F
189 °C	Cc1cc(Nc2ccnc(Nc3ccc(S(=O)(=O)N(CC4CCCO4)C4CCN(C)CC4)cc3)n2)ccc1F (stereo not given)
143 °C	Cc1ccc(Oc2ccc(-c3ccn(CC4CC4)c(=O)c3Cl)cc2F)c(C)n1
150 to 151 °C	COc1nc(N2CCOCC2)c(Cl)nc1NS(=O)(=O)c1cccc(Cl)c1Cl
141 to 143 °C	Cc1cccc(C2(c3ccc(F)c(-c4ccc(NC(=O)NN5CCOCC5)cc4)c3)CNC(C(C)C)=N2)n1 (stereo not given)
141 to 142 °C	O=c1ccc(-c2c(-c3ccccc3)nn3ccccc23)nn1CC1CCCCN1 (stereo not given)
125 to 126 °C	CCOc1nn(-c2ccc(C(F)(F)F)cc2)cc1CCCOc1ccc(CCC(=O)O)cc1OC
